Measured values published in US10208037B2, “Toll-like receptor-7 and -8 modulatory 1H imidazoquinoline derived compounds” (The University of Kansas, priority 2011, dated 2019).
pEC50: −log10 of the molar value.

Columns and labels:
[1] = test system: human PBMCs; assay: Immunoassays for IFN-α, IFN-γ, IL-12 and IL-18 in human PBMCs; type: cell-based
Method: Fresh human peripheral blood mononuclear cells (PBMC) were isolated from human blood obtained by venipuncture with informed consent and as per institutional guidelines on Ficoll-Hypaque gradients as described elsewhere.^53 Aliquots of PBMCs (10^5 cells in 100 µL/well) were stimulated for 12 h with graded concentrations of test compounds. Supernatants were isolated by centrifugation, diluted 1:20, and were assayed in triplicates using a high-sensitivity analyte-specific ELISA kits (PBL Interferon Source, Piscataway, N.J. and R&D Systems, Inc., Minneapolis, Minn.).

[2] = Aqueous solubility; type: physicochemical
[3] = test system: outbred CF-1 mice; assay: Immunization of CF-1 mice with bovine α-lactalbumin, antibody ELISA; type: in vivo; settings: relative to α-lactalbumin alone; boost Day 14, bled Day 21
Method: FIGS. 10A-10D are graphs illustrating immunoglobulin profiles in outbred CF-1 mice immunized on Day 0 with 50 μg/animal of α-lactalbumin, or α-lactalbumin covalently coupled with 5 equivalents of 8, or α-lactalbumin mixed with 5 equivalents of 7d. Animals (5 per cohort) were boosted once on Day 14 exactly as mentioned above, and bled on Day 21. α-lactalbumin-specific immunoglobulin levels were quantified by standard antibody-capture ELISA, performed in liquid handler-assisted 384-well format.
FIG. 11 is a graph illustrating affinity IgG ELISA showing antibody titer as a function of chaotrope (NaSCN) concentration. IgG titers on the ordinate axis were calculated from absorbance values at 0.25 (which corresponds to […] above that of naïve controls).
All experiments were performed in accordance with animal care protocols approved by the University of Kansas IACUC Committee. […]
A precision 2000 liquid handler (Bio-Tek, Winooski, Vt.) was used for all serial dilution and reagent addition steps, and a Bio-Tek ELx405 384-well plate washer was employed for plate washes; 100 mM phosphate-buffered saline (PBS) pH 7.4, containing 0.1% Tween-20 was used as wash buffer. […] Plates were then read at 450 nm using a SpectraMax M4 device (Molecular Devices, Sunnyvale, Calif.). […]

[4] = biological target: T1, TLR7 (Homo sapiens, UniProt Q9NYK1); assay: TLR7 reporter gene assay (NF-κB induction, HEK-Blue-7 cells), agonism; type: cell-based
T1 construct: expressed in transfected cells; host or cells: HEK293 (HEK-Blue-7 cells)
T1 sequence (Q9NYK1 27-1049): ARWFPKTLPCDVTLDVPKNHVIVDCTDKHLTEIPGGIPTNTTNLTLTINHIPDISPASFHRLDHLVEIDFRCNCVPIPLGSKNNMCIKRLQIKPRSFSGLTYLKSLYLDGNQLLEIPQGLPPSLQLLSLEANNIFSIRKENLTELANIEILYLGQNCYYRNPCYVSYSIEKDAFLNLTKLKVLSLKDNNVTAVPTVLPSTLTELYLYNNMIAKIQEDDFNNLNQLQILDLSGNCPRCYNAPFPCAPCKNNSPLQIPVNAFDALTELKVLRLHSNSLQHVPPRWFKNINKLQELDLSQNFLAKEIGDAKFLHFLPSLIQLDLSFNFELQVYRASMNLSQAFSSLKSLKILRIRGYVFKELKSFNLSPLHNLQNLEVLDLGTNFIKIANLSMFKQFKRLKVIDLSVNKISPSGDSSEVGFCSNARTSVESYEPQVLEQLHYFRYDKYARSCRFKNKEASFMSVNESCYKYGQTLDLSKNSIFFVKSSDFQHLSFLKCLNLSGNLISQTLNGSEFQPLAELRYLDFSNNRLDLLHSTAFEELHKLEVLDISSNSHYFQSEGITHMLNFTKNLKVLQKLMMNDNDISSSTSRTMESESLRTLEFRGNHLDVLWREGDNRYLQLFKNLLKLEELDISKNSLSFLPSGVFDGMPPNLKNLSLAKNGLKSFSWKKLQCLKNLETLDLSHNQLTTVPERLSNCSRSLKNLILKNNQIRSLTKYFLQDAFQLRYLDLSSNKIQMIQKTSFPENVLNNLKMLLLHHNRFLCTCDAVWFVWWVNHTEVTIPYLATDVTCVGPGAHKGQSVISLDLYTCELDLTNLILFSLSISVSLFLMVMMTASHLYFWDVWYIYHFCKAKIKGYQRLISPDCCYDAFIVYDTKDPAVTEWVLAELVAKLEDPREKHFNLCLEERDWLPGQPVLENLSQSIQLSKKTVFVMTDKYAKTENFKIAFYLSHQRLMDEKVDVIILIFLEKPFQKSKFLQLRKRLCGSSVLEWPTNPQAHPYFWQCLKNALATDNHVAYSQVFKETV
Description: (§1) NF-κB induction: The induction of NF-κB was quantified using HEK-Blue-7 cells and HEK-Blue-8 cells as previously described by us.^8,24 HEK293 cells were stably transfected with human TLR7 (or human TLR8), MD2, and secreted alkaline phosphatase (sAP), and were maintained in HEK-Blue™ Selection medium containing zeocin and normocin. Stable expression of secreted alkaline phosphatase (sAP) under control of NF-κB/AP-1 promoters is inducible by the TLR7 (or TLR8) agonists, and extracellular sAP in the supernatant is proportional to NF-κB induction. HEK-Blue cells were incubated at a density of […] in a volume of 80 μL/well, in 384-well, flat-bottomed, cell culture-treated microtiter plates until confluency was achieved, and subsequently graded concentrations of stimuli. sAP was assayed spectrophotometrically using an alkaline phosphatase-specific chromogen (present in HEK-detection medium as supplied by the vendor) at 620 nm.
(§2) The induction of NF-κB was quantified using HEK-Blue-3, HEK-Blue-7 and HEK-Blue-8 cells as previously described by us.^8,24,51 HEK293 cells were stably transfected with human TLR3 (or human TLR7 or human TLR8), MD2, and secreted alkaline phosphatase (sAP), and were maintained in HEK-Blue™ Selection medium containing zeocin and normocin. Stable expression of secreted alkaline phosphatase (sAP) under control of NF-κB/AP-1 promoters is inducible by the TLR3 (or TLR7 or TLR8) agonists, and extracellular sAP in the supernatant is proportional to NF-κB induction. HEK-Blue cells were incubated at a density of ˜10^5 cells/ml in a volume of 80 μl/well, in 384-well, flat-bottomed, cell culture-treated microtiter plates until confluency was achieved, and subsequently graded concentrations of stimuli. sAP was assayed spectrophotometrically using an alkaline phosphatase-specific chromogen (present in HEK-detection medium as supplied by the vendor) at 620 nm.

[5] = biological target: T2, TLR8 (Homo sapiens, UniProt Q9NR97); assay: TLR8 reporter gene assay (NF-κB induction, HEK-Blue-8 cells), agonism; type: cell-based
T2 construct: expressed in transfected cells; host or cells: HEK293 (HEK-Blue-8 cells)
T2 sequence (Q9NR97 27-1041): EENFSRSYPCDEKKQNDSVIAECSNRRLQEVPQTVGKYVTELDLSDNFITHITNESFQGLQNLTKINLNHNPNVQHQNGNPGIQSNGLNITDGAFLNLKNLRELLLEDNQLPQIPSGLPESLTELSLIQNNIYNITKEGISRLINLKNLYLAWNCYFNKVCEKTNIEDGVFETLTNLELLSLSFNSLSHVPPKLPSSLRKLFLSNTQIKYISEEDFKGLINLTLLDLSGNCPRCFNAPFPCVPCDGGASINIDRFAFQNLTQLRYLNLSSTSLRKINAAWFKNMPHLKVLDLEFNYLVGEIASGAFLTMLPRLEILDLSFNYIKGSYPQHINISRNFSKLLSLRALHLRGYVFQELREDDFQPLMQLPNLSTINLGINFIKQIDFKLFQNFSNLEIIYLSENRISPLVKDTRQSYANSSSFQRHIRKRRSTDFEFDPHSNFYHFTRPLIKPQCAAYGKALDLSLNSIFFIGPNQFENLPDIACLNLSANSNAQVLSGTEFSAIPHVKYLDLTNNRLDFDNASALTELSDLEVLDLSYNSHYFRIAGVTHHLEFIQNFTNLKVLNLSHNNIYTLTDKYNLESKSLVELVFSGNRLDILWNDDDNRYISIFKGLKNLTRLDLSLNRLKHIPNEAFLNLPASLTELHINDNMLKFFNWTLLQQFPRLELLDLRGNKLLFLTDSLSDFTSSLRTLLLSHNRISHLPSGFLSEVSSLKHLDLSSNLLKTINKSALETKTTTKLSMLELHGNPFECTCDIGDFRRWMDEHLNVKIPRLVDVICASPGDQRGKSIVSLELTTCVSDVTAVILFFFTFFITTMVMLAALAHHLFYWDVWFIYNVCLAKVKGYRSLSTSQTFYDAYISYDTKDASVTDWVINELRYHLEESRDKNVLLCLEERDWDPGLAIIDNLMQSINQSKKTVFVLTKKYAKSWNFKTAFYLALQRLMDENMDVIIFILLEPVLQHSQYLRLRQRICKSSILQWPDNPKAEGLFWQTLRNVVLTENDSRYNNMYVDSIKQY
Description: as §1, §2

[6] = test system: human PBMCs; assay: Proinflammatory cytokine induction in human PBMCs; type: cell-based
Method: (§3) Aliquots (10^6 cells in 100 μL) of hPBMCs isolated from blood obtained from healthy human donors after informed consent by conventional Ficoll-Hypaque gradient centrifugation were stimulated for 12 h with graded concentrations of test compounds. The supernatant was isolated by centrifugation, diluted 1:20, and cytokines and chemokines were assayed in triplicate using analyte-specific cytokine/chemokine bead array assays as reported by us previously.^74

[7] = test system: rabbits; assay: Rabbit immunization model using bovine α-lactalbumin as model subunit vaccine; settings: in vivo
Description: FIG. 18 illustrates ratios of Immune-1/pre-immune (after primary vaccination) and Immune-2/pre-immune (after Boost-1) anti-α-lactalbumin IgG titers in rabbits. FIGS. 19A and 19B are graphs illustrating TLR7 and TLR8 agonistic activities of the imidazoquinoline dimers in human TLR-specific reporter gene assays.
FIG. 27 illustrates ratios of immune-1/pre-immune (after primary vaccination) and Immune-2/pre-immune (after Boost-1) anti-α-lactalbumin IgG titers in rabbits using the hybrids as adjuvants. Also shown are the IMDQ (7d) and PAM2CS, as well as IMDQ (7d)+PAM2CS mixture controls.

[8] = test system: human peripheral blood mononuclear cells; assay: IFN-α induction in human PBMCs (ELISA); type: cell-based; settings: hPBMC, 12 h
Method: FIG. 21 is a graph illustrating IFN-α induction by select dimers in human peripheral blood mononuclear cells. IFN-α was assayed by analyte specific ELISA after incubation of hPBMCs with graded concentrations of the test compound for 12 h.
as §3, with “IFN-α was” for “cytokines and chemokines were”, “a high-sensitivity human IFN-α-specific ELISA kit (PBL Interferon Source, Piscataway, N.J.).” for “analyte-specific cytokine/chemokine bead array assays as reported by us previously.^74”

| Structure (SMILES) | Th1 bias (induction of IFN-α, IFN-γ, IL-12, IL-18) [1] | Aqueous solubility (in words) [2] | α-lactalbumin-specific antibody titers [3] | TLR7-agonistic activity (in words) [4] | TLR8-agonistic activity (in words) [5] | IFN-γ induction (in words) [1] | Proinflammatory cytokine induction (in words) [6] | Adjuvantic activity, anti-α-lactalbumin IgG titers in rabbits [7] | pEC50 ([4]; Table 1, ND = not detected, read-out: TLR7 Agonism) | pEC50 ([5]; Table 1, ND = not detected) | IFN-α induction (in words) [8] |
| --- | --- | --- | --- | --- | --- | --- | --- | --- | --- | --- | --- |
| CCCCc1nc2c(N)nc3ccccc3c2n1Cc1ccc(CN)cc1 [Compound 7d, 1-(4-(Aminomethyl)benzyl)-2-butyl-1H-imidazo[4,5-c]quinolin-4-amine] | prominent Th1 bias | excellent | dramatic enhancements in antibody titers | – | – | – | – | – | – | – | – |
| CCCCc1nc2c(N)nc3ccccc3c2n1Cc1ccc(CNC(=O)Cn2cc(CN(CCN(CCN(Cc3cn(CC(=O)NCc4ccc(Cn5c(CCCC)nc6c(N)nc7ccccc7c65)cc4)nn3)Cc3cn(CC(=O)NCc4ccc(Cn5c(CCCC)nc6c(N)nc7ccccc7c65)cc4)nn3)CCN(Cc3cn(CC(=O)NCc4ccc(Cn5c(CCCC)nc6c(N)nc7ccccc7c65)cc4)nn3)Cc3cn(CC(=O)NCc4ccc(Cn5c(CCCC)nc6c(N)nc7ccccc7c65)cc4)nn3)Cc3cn(CC(=O)NCc4ccc(Cn5c(CCCC)nc6c(N)nc7ccccc7c65)cc4)nn3)nn2)cc1 [Compound 43] | – | – | – | retaining in large measure the TLR7-agonistic activity | loss of TLR8-stimulatory activity | selective and complete loss of TLR8-associated IFN-γ | absence of proinflammatory cytokine induction | better than 7d | – | – | – |
| CCCCc1nc2c(N)nc3ccccc3c2n1Cc1ccc(CNC(=O)CCCCCCCCCCC(=O)NCc2ccc(Cn3c(CCCC)nc4c(N)nc5ccccc5c43)cc2)cc1 [Compound 52c, N^1,N^12-bis(4-((4-amino-2-butyl-1H-imidazo[4,5-c]quinolin-1-yl)methyl)benzyl)dodecane Diamide] | – | – | – | – | displayed both TLR7 and TLR8 agonism | – | – | – | 6.77 | 5.32 | most potent |
